Experimental data from ChEMBL document CHEMBL5321216, “Discovery of bipyridine amide derivatives targeting pRXRα-PLK1 interaction for anticancer therapy” (Eur J Med Chem, 2023).
pIC50: −log10 of the molar value. Calls of active or inactive are those of the source. The rule behind the calls is not given here.

Columns and labels:
MDA-MB-231 [1] = experiment: Induction of apoptosis in human MDA-MB-231 cells assessed as reduction in Mcl-1 protein expression measured after 24 hrs by Western blot analysis; format: functional, cell-based; conditions: dose 7.8-500 nM
MDA-MB-231 [2] = experiment: Induction of apoptosis in human MDA-MB-231 cells assessed as early apoptotic cells at 125 nM incubated for 24 hrs by annexin V-FITC/PI staining based flow cytometry analysis (reference value: 2.03%); format: functional
HCC1937 = experiment: Antiproliferative activity against human HCC1937 cells assessed as inhibition of cell proliferation incubated for 72 hrs by MTT assay; format: functional, cell-based; conditions: HCC1937, 72 h
A549 [3] = experiment: Induction of apoptosis in human A549 cells assessed as live cells at 125 nM incubated for 24 hrs by annexin V-FITC/PI staining based flow cytometry analysis (reference value: 93.2%); format: functional
A549 [4] = experiment: Induction of apoptosis in human A549 cells assessed as early apoptotic cells at 250 nM incubated for 24 hrs by annexin V-FITC/PI staining based flow cytometry analysis (reference value: 0.78%); format: functional
A549 [5] = experiment: Induction of apoptosis in human A549 cells assessed as live cells at 62.5 nM incubated for 24 hrs by annexin V-FITC/PI staining based flow cytometry analysis (reference value: 93.2%); format: functional
MDA-MB-231 [6] = experiment: Induction of apoptosis in human MDA-MB-231 cells assessed as late apoptotic cells at 62.5 nM incubated for 24 hrs by annexin V-FITC/PI staining based flow cytometry analysis (reference value: 5.93%); format: functional
A549 [7] = experiment: Antiproliferative activity against RXRalpha knockout human A549 cells assessed as inhibition of cell growth incubated for 72 hrs by MTT assay; format: functional, cell-based; conditions: A549, 72 h
A549 [8] = experiment: Induction of apoptosis in human A549 cells assessed as dead cells at 125 nM incubated for 24 hrs by annexin V-FITC/PI staining based flow cytometry analysis (reference value: 0.75%); format: functional
A549 [9] = experiment: Induction of apoptosis in human A549 cells assessed as late apoptotic cells at 31.25 nM incubated for 24 hrs by annexin V-FITC/PI staining based flow cytometry analysis (reference value: 5.28%); format: functional
HepG2 = experiment: Antiproliferative activity against human HepG2 cells assessed as cell viability rate at 5 uM incubated for 72 hrs by MTT assay relative to control; format: functional
A549 [10] = experiment: Induction of apoptosis in human A549 cells assessed as early apoptotic cells at 125 nM incubated for 24 hrs by annexin V-FITC/PI staining based flow cytometry analysis (reference value: 0.78%); format: functional
[11] = Drug absorption in KM mouse at 25 mg/kg, po measured after 0.5 to 2 hrs; format: ADME, organism-based; conditions: in vivo, time 0.5-2 hrs
A549 [12] = experiment: Induction of cell cycle arrest in RXRalpha knockout human A549 cells assessed as accumulation of cells at G1 phase at 125 nM incubated for 12 hrs by DAPI staining based flow cytometry analysis (reference value: 52.29 %); format: functional
[13] = Toxicity in BALB/c mouse xenografted with human MDA-MB-231 cells assessed as heart damage at 25 mg/kg/day, ip administered for 15 days by H and E staining based analysis; format: organism-based; conditions: in vivo, 360 h, time 15 day
MDA-MB-231 [14] = experiment: Inhibition of colony formation in human MDA-MB-231 cells at 62.5 nM incubated for 48 hrs followed by replacement with normal culture medium and measured after […] by crystal violet staining based assay relative to control; format: functional
[15] = Selectivity index, ratio of IC50 for human MCF7 cells to IC50 for human MDA-MB-231 cells; format: toxicity
A549 [16] = experiment: Induction of apoptosis in human A549 cells assessed as late apoptotic cells at 250 nM incubated for 24 hrs by annexin V-FITC/PI staining based flow cytometry analysis (reference value: 5.28%); format: functional
MDA-MB-231 [17] = experiment: Induction of cell cycle arrest in human MDA-MB-231 cells assessed as accumulation of cells at S phase at 62.5 nM incubated for 12 hrs by flow cytometry analysis (reference value: 40.89%); format: functional
HeLa = experiment: Antiproliferative activity against human HeLa cells assessed as inhibition of cell proliferation incubated for 72 hrs by MTT assay; format: functional, cell-based
MDA-MB-231 [18] = experiment: Induction of apoptosis in human MDA-MB-231 cells assessed as live cells at 125 nM incubated for 24 hrs by annexin V-FITC/PI staining based flow cytometry analysis (reference value: 91.3%); format: functional
A549 [19] = experiment: Antiproliferative activity against wild type human A549 cells assessed as inhibition of cell growth incubated for 72 hrs by MTT assay; format: functional, cell-based; conditions: A549, 72 h
A549 [20] = experiment: Induction of cell cycle arrest in human A549 cells assessed as accumulation of cells at S phase at 62.5 nM incubated for 12 hrs by flow cytometry analysis (reference value: 31.81%); format: functional
MDA-MB-231 [21] = experiment: Induction of cell cycle arrest in human MDA-MB-231 cells assessed as accumulation of cells at S phase at 31.25 nM incubated for 12 hrs by flow cytometry analysis (reference value: 40.89%); format: functional
MDA-MB-231 [22] = experiment: Induction of cell cycle arrest in human MDA-MB-231 cells assessed as accumulation of cells at G2 phase at 125 nM incubated for 12 hrs by flow cytometry analysis (reference value: 15.91%); format: functional
MDA-MB-231 [23] = experiment: Induction of apoptosis in human MDA-MB-231 cells assessed as live cells at 62.5 nM incubated for 24 hrs by annexin V-FITC/PI staining based flow cytometry analysis (reference value: 91.3%); format: functional
[24] = Toxicity in BALB/c mouse xenografted with human MDA-MB-231 cells assessed as spleen damage at 25 mg/kg/day, ip administered for 15 days by H and E staining based analysis; format: organism-based; conditions: in vivo, 360 h, time 15 day
MDA-MB-231 [25] = experiment: Induction of cell cycle arrest in human MDA-MB-231 cells assessed as accumulation of cells at G1 phase at 125 nM incubated for 12 hrs by flow cytometry analysis (reference value: 43.2%); format: functional
[26] = target: T1, Retinoic acid receptor RXR-alpha (Homo sapiens) (UniProt P19793); experiment: Antagonist activity at RXRalpha (unknown origin) transfected in human HeLa cells assessed as inhibition of CD3254- induced receptor transactivation by measuring remaining luciferase activity at 1 uM incubated for 24 hrs by dual luciferase reporter assay; format: cell-based; conditions: filed as antagonist
T1 sequence (whole entry): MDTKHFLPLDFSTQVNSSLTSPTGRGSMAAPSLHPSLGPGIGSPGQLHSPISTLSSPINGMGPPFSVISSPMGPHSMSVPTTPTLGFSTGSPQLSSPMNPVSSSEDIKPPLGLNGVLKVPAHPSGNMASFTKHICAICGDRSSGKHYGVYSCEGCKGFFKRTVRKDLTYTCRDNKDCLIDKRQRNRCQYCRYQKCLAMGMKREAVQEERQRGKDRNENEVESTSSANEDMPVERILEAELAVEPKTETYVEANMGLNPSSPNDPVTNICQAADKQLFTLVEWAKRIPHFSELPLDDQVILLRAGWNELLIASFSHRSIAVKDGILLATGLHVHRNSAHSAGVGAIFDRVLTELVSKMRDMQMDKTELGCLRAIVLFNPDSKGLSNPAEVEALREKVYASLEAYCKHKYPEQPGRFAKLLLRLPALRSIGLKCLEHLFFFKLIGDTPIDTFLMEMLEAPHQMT

Structure (SMILES): O=C(/C=C/c1ccccc1)Nc1cc(-c2ccnc(N3CCC(CO)CC3)c2)ccn1
- Activity (MDA-MB-231 [1]): Dose-Dependent Effect
- Activity (MDA-MB-231 [2]): 11.2%
- pIC50 (HCC1937): 6.25
- Activity (A549 [3]): 52%
- Activity (A549 [4]): 31.3%
- Activity (A549 [5]): 67.7%
- Activity (MDA-MB-231 [6]): 15.2%
- pIC50 (A549 [7]): 5.47
- Activity (A549 [8]): 2.31%
- Activity (A549 [9]): 18.9%
- Activity (HepG2): 42.38%
- Activity (A549 [10]): 22.9%
- Drug absorption [11]: Not Active
- Activity (A549 [12]): 17.83%
- Activity [13]: Non-Toxic
- inhibition at 0.0625 µM (MDA-MB-231 [14]): 100%
- Ratio IC50 [15]: 146.5
- Activity (A549 [16]): 21.4%
- Activity (MDA-MB-231 [17]): 16.51%
- pIC50 (HeLa): 7.11
- Activity (MDA-MB-231 [18]): 66.9%
- pIC50 (A549 [19]): 6.71
- Activity (A549 [20]): 27.68%
- Activity (MDA-MB-231 [21]): 30.34%
- Activity (MDA-MB-231 [22]): 85.88%
- Activity (MDA-MB-231 [23]): 69.2%
- Activity [24]: Non-Toxic
- Activity (MDA-MB-231 [25]): 0.07%
- inhibition [26]: Active
